Columns and labels:
Plasmodium falciparum = test: Growth inhibitory effect of GA on synchronous parasites (Giemsa-stained smears); format: cell-based
Text: In order to check if GA could inhibit Plasmodium falciparum growth in vitro, we prepared highly synchronous ring-infected parasites using 5% sorbitol. These ring-staged parasites were suspended in RPMI to make 5% hematocrit. […] This correlates with elevated expression of Pfhsp90 in the trophozoite stage compared to ring stage.

[1] = system: Plasmodium falciparum ring-infected erythrocytes; test: Anti-malarial effect of GA and HA on overall parasitemia (giemsa staining); format: cell-based
Protocol: To show the effects of GA on overall parasitemia, ring-infected erythrocytes were either treated with DMSO or with 5 μM GA for 48 hrs (culture was replenished with medium and GA every 24 hrs) and parasitemia was calculated by giemsa staining. While the mock-treated parasites multiplied at the end of 48 hrs, parasitemia was reduced to 50 percent in GA treated cultures by 48 hrs.

Row | SMILES | inhibition at 10 µM (Plasmodium falciparum; Plasmodium falciparum, GA added in the trophozoite stage, 10 μM) [%] | concentration of maximal growth inhibition (Plasmodium falciparum; ring-staged parasites, 24 h) [µM] | parasitemia reduced to ([1]; ring-infected erythrocytes, 5 μM, 48 hrs, replenished every 24 hrs) [%] | anti-malarial effect (summary statement) [1] | concentration of maximal reduction in parasitemia ([1]; 0.5, 1, 5 and 10 μM tested, 48 hrs) [µM]
1 | COC1=C2C[C@@H](C)C[C@H](OC)[C@H](O)[C@@H](C)/C=C(\C)[C@H](OC(N)=O)[C@@H](OC)/C=C\C=C(/C)C(=O)NC(=CC1=O)C2=O [GA, Geldanamycin] | 100 | 5 | 50 | – | –
2 | CO[C@H]1[C@@H](OC)C[C@H](C)[C@@H](OC)C2=CC(=O)C=C(NC(=O)/C(C)=C/C=C\[C@H](OC)[C@@H](OC(N)=O)/C(C)=C/[C@@H]1C)C2=O [HA, Herbimycin A] | – | – | – | kill the malarial parasite at the stage of early trophozoite development | 10
